From patent publication US8445511B2, “Quinoline or quinoxaline derivatives for treating neurodegenerative diseases” (Centre National de la Recherche Scientifique (SNRS), priority 2008, dated 2013)

Test system: fetal dopaminergic neurons in culture
Assay: Neuroprotection and differentiation of dopaminergic (TH+) neurons in primary culture of rat embryo mesencephalon (spontaneous degeneration model)
Type: cell-based
Parameters: key to Diff (qualitative assessment of neuron differentiation): + indicates that the neurons have a morphology similar to that of the control; ++ and +++ indicate the presence of neurons whose extensions are longer and more numerous than the control neurons; ++ and +++ indicate the presence of neurons whose extensions are longer and more numerous than the control neurons; − indicates that the neurons have neurites that are shorter and less numerous than the control neurons
Conditions: for Diff (qualitative assessment of neuron differentiation): dopaminergic neurons in culture; for viability at 0.1 µM: Rattus norvegicus, Neuron, 192 h, read-out: % Neurons relative to the control ±SEM
Procedure: Dissection consists in extracting the embryos from the uterus of a rat at fifteen days of gestation. The brain of each embryo is then dissected under a binocular magnifier in order to extract the ventral mesencephalon.
The mesencephalons are gathered in a flask containing 2 ml of L15 medium and then mechanically dissociated (30 times), and then 5 ml of L15 medium are added. The suspension is left to rest for 8 minutes. 5 ml of the supernatant are recovered in a new flask and the cells are dissociated again (30 times). 5 ml of L15 are again added and the suspension is left to rest for 8 minutes. 5 ml of supernatant are added to the preceding. The cells thus extracted are then centrifuged for 5 minutes at 1,000 rpm. The cell pellet is taken up in Neurobasal medium supplemented with 1% B27, 1% glutamine and 1% penicillin/streptomycin mixture. The cells are then inoculated at the appropriate dilution (0.6 embryo per well on a 24-well plate and 0.4 per well on a 48-well plate). The cultures are incubated at 37° C. in a humid atmosphere enriched with 5% CO2 in a 24- or 48-well plate.
After 24 hours, two-thirds of the medium of each well is replaced by new medium enriched with the compound of the invention to test at the appropriate dilution. The medium is replaced in the same way after 4 days of culture.
At 8 days of culture, the cells are fixed by a 4% formaldehyde solution and then washed three times with PBS. The cells then undergo several immunohistochemistry procedures: • anti-tyrosine hydroxylase (TH) visualized by a secondary antibody coupled to a fluorochrome that emits in the red spectrum (Cy3). • anti-MAP2 (MAP=microtubule-associated protein) (neuron marker) visualized by a secondary antibody coupled to a fluorochrome that emits in the green spectrum (alexa488). • DAPI (4′,6-diamidino-2-phenylindole), a nuclear marker that emits in the blue spectrum.
Neuroprotection is evaluated by counting TH positive neurons directly under the microscope or MAP2 positive on images, at 15 images per well, expressed as a percentage of the untreated control. The experiments include three wells per condition. Three independent experiments are carried out under these conditions. Total neurite length per cell calculated by the Neurite Outgrowth software by Explora Nova on 20 neurons photographed independently per well gives an indication of the state of maturation of the dopaminergic neurons.
The compounds of the invention were tested on a model of spontaneous degeneration of dopaminergic neurons in culture.
This model consists of culturing cells of the ventral mesencephalon of rat embryo. This part of the brain in culture contains dopaminergic neurons and other primarily GABAergic neurons. These cultures are also composed of glial cells, namely astrocytes, oligodendrocytes and microglia. This is a model of spontaneous degeneration of dopaminergic neurons which mimics certain aspects of Parkinson's disease.
The neuroprotective effect of the compounds of the invention was evaluated by counting dopaminergic neurons (TH^+) marked by tyrosine hydroxylase (TH) immunohistochemistry after 8 days of culture. Thus the compounds were evaluated at 1 nM, 10 nM, 100 nM and 1 μM and were compared with the activity of dibutyryl cyclic AMP (db-cAMP) used as the reference product.
In order to evaluate more quantitatively the activity of the compounds of the invention, neurite growth per cell was measured using the Neurite Outgrowth software developed by Explora Nova. A minimum of 60 neurons per condition were photographed and studied, and the results were then averaged and normalized by the number of neurons considered.

[1] = 100 nM, survival of TH+ dopaminergic neurons after 8 days of culture

CCCCCCCCCCCCCCC(=O)Nc1ccc2nc(C)cnc2c1 [Compound F2, N-(2-methylquinoxalin-6-yl)pentadecanamide]
Diff (qualitative assessment of neuron differentiation) (100 nM): +++ | viability at 0.1 µM [1]: 120 ± 3.1%

CCCCCCCCCCCCCCCNc1ccc2ncc(CCCC)nc2c1 [Compound G3, N-(3-butylquinoxalin-6-yl)pentadecanamine]
Diff (qualitative assessment of neuron differentiation) (100 nM): ++ | viability at 0.1 µM [1]: 113 ± 7%

CCCCCCCCCCCCCCCNc1ccc2nccnc2c1 [Compound G1, N-(quinoxalin-6-yl)pentadecanamine]
Diff (qualitative assessment of neuron differentiation) (100 nM): +++ | viability at 0.1 µM [1]: 131 ± 10.9%

C#CC(O)CCCCc1cnc2ccccc2c1 (stereo not drawn) [Compound Z2, reference compound]
Diff (qualitative assessment of neuron differentiation) (100 nM): + | viability at 0.1 µM [1]: 118 ± 6.1%

CCCCCCCCCCCCCCCNc1ccc2nc(CCCCCC)c(CCCC)nc2c1 [Compound G4, N-(2-hexyl-3-butylquinoxalin-6-yl)pentadecanamine]
Diff (qualitative assessment of neuron differentiation) (100 nM): ++ | viability at 0.1 µM [1]: 111 ± 5.3%

OCCCCCCCCCCCC#Cc1ccc2ccccc2n1 [Compound K2, 13-(quinolin-2-yl)tridec-12-yn-1-ol]
Diff (qualitative assessment of neuron differentiation) (100 nM): ++ | viability at 0.1 µM [1]: 121 ± 3.1%

OCCCCCCCCCCCCCCCNc1ccc2nccnc2c1 [Compound G5, 15-hydroxy-N-(quinoxalin-6-yl)pentadecylamine]
Diff (qualitative assessment of neuron differentiation) (100 nM): ++ | viability at 0.1 µM [1]: 130 ± 7%

CCCCCCCCCCCCCCC(=O)Nc1ccc2nccnc2c1 [Compound F1, Nr-(quinoxalin-6-yl)pentadecanamide]
Diff (qualitative assessment of neuron differentiation) (100 nM): +++ | viability at 0.1 µM [1]: 125 ± 5.5%

C#CC(O)CCCCCCCCCCCCCCc1ccc2ccccc2n1 (stereo not drawn) [Compound N′3, 17-(quinolin-2-yl)heptadec-1-yn-3-ol]
neuroprotective activity (percentage of survival of dopaminergic neurons), in words, versus reference product db-cAMP (dopaminergic neurons, 8 days of culture): equal to or greater than that of the reference product

CCCC(=O)Nc1ncnc2c1ncn2[C@@H]1O[C@@H]2COP(=O)(O)O[C@H]2[C@H]1OC(=O)CCC [db-cAMP, dibutyryl cyclic AMP, reference compound]
Diff (qualitative assessment of neuron differentiation) (100 nM): +++ | % Neurons relative to the control ±SEM [1]: 149.9 ± 3.6%

CCCCC#Cc1cnc2ccccc2c1 [Compound Z3, reference compound]
Diff (qualitative assessment of neuron differentiation) (100 nM): − | viability at 0.1 µM [1]: 104 ± 4.2%

CCCCCCCCCCCCCCC(=O)Nc1ccc2nc(CCCCCC)c(CCCC)nc2c1 [Compound F4, N-(2-hexyl-3-butylquinoxalin-6-yl)pentadecanamide]
Diff (qualitative assessment of neuron differentiation) (100 nM): ++ | viability at 0.1 µM [1]: 101 ± 2.2%

CCCCCCCCCCCCCCCNc1ccc2nc(C)cnc2c1 [Compound G2, N-(2-methylquinoxalin-6-yl)pentadecanamine]
Diff (qualitative assessment of neuron differentiation) (100 nM): +++ | viability at 0.1 µM [1]: 135 ± 4.4%

C#CC(O)CCC#Cc1cnc2ccccc2c1 (stereo not drawn) [Compound Z1, reference compound]
dose-response of effect on survival of dopaminergic neurons (1 nM, 10 nM, 100 nM and 1 μM, FIG. 2): zero at all the concentrations tested | Diff (qualitative assessment of neuron differentiation) (100 nM): − | viability at 0.1 µM [1]: 98.2 ± 6.3%

CCCCCCCCCCCCCCC(=O)Nc1ccc2ncc(CCCC)nc2c1 [Compound F3, N-(3-butylquinoxalin-6-yl)pentadecanamide]
Diff (qualitative assessment of neuron differentiation) (100 nM): ++ | viability at 0.1 µM [1]: 114 ± 3.8%
